# Data: a melting point compilation (Tetko et al.; mined from patent text by program, amines drawn as free bases though some values may be those of a salt)
row,melting point,SMILES
1,198 to 199 °C,COc1cc2c(cc1O)CCCC(C(=O)N1CCN(C(=O)c3cc(OC)c(OC)c(OC)c3)CC1)=C2
2,240 to 244 °C,Cc1cc(C)n(-c2nc(Nc3ccccc3C)c3ccccc3n2)n1
3,193 to 195 °C,Cc1c(CC2CCc3c(c4ccccc4n3C)C2=O)ncn1C(c1ccccc1)(c1ccccc1)c1ccccc1 (stereo not drawn)
4,276 to 278 °C,Cc1nc(-c2ccc(C(=O)Nc3ccc(Cl)cc3)cc2)sc1C(=O)O
5,> 300 °C,O=c1nc(-c2ccccc2F)c2cc(Cl)ccc2[nH]1
6,205 to 207 °C,CC(=O)Nc1c(C(=O)c2nccn2C)[nH]c2cc(Cl)ccc12
7,191 to 192 °C,Cc1cc(-n2ccc(OCc3ccccc3)cc2=O)oc1C(=O)NCc1ccccc1
8,109 to 111 °C,Cc1nc(N2CCN(Cc3c(C)noc3-c3ccccc3)C2=O)sc1C(=O)NCc1cccnc1
9,133 °C,COc1ccc2ccc3[nH]c4ccc5ccc(OC)cc5c4c3c2c1
10,126 to 127 °C,Cn1cnc2ccc(-c3nnc(SCc4cccc(C(F)(F)F)c4)o3)cc21
11,185 to 186 °C,COC(=O)C=Cc1ccc(OCc2nc(-c3ccc4ccccc4c3)oc2C)cc1
12,232 to 236 °C,O=C(Cn1cc(Cl)cnc1=O)c1ccc([N+](=O)[O-])cc1
13,153 to 154 °C,CC(C)(C)OC(=O)C(O)c1ccc2c(c1)OC(c1ccccc1)(c1ccccc1)O2 (stereo not drawn)
14,115 to 120 °C,CC(C)(C)OC(=O)N(CCO)C1CCN(c2ccc3c(NC(=O)CC4CCCCC4)c(Cl)ccc3n2)C1 (stereo not drawn)
15,112 to 114 °C,COc1cc(C2=C(c3cn(CCCNC(=O)C(N)CO)c4ccccc34)C(=O)NC2=O)cc(OC)c1OC (stereo not drawn)
16,163 to 166 °C,Cc1nc2c(OCc3ccccc3)cccn2c1CC#N
17,227 to 229 °C,COc1cccc(CNC(=O)c2nc3cccc(OCc4ccc(-c5nnn[nH]5)cc4)c3c(=O)[nH]2)c1
18,168 to 169 °C,COc1cccc(NC(=O)c2ccccc2C(=O)O)c1
19,58 to 59 °C,CC(=O)CCN(Cc1ccccc1)Cc1ccccc1
20,209 to 215 °C,CC1CC(=O)NN=C1c1ccc2c(c1)NCC(c1ccccc1)N2 (stereo not drawn)
21,84 to 85 °C,CCCCCCCCCCC(O)c1ccc2oc([N+](=O)[O-])c(-c3ccccc3)c2c1 (stereo not drawn)

row,melting point,SMILES
1,130 to 133 °C,CCC1=NC(NC(=O)Nc2cccc(C)c2)C(=O)N(CC(=O)N2CC3CCC(CC3)C2)c2c(C)cccc21 (stereo not drawn)
2,258 to 260 °C,Cc1[nH]c(=O)ccc1C(=O)c1ccco1
3,73 to 73.5 °C,COc1cc(NCCCCCCN2CCN(C(=O)OCc3ccccc3)CC2)c2nccc(C)c2c1
4,181 to 182 °C,FC(F)(F)c1cccc(CSc2nnc(-c3ccc4ncc(-c5ccccn5)n4c3)o2)c1
5,158 to 160 °C,O=C1Cc2cccc(Oc3cccc4ccccc34)c2N1
6,70 to 71 °C,CCNC(=O)NCCC1CCCc2ccc(OC)cc21 (stereo not drawn)
7,139 to 140 °C,COc1ccc2c(c1OC)CCC=C2C#N
8,141 to 144 °C,COC1=NS(=O)(=O)N(Cc2ccccc2)C(=O)N1
9,238 °C,O=C(O)c1cnn2c(C(F)(F)F)cc(-c3ccc(Cl)cc3)nc12
10,> 230 °C,CN(C)C(c1ccccc1Cl)C1CCCCC1(O)c1ccc2ccccc2c1 (stereo not drawn)
11,168 to 170 °C,O=c1ccc(C(F)(F)F)cn1Cc1ccc(NCCCN2CCCCC2)cc1
12,196 to 200 °C,N#Cc1ccc(-c2sc(N)c(C(=O)c3ccc(Cl)cc3)c2CN(C2CCCCC2)C2CCCCC2)cc1
13,244 to 245 °C,CS(=O)(=O)c1cc(O)ccc1/C=C/c1ccc(O)cc1
14,180 to 182 °C,CC(=O)SC(C)C(Cc1ccccc1)C(=O)Nc1cccc(C(=O)O)c1 (stereo not drawn)
15,154 °C,Nc1ncc2c(n1)N(c1cccc(CCO)c1)C(=O)N(c1ccccc1Br)C2
16,179 to 180 °C,CC(C)(C)N(NC(=O)c1ccccn1)C(=O)c1ccccc1Br
17,161 to 163 °C,Cn1cc(Br)cc(Nc2ccn(C3CC3)n2)c1=O
18,203 to 204 °C,Cn1ncc(-c2ccc3c(c2)c(C2CCN(CCN4CCNC4=O)CC2)cn3-c2ccc(F)cc2)n1
19,203 to 206 °C,CC(=O)Nc1cccc2c(OC(C)=O)c(S(=O)(=O)NC(C)(C)C)ccc12
20,283 to 284 °C,CC(C)(CCc1noc(=O)[nH]1)c1ccc(C(=O)Nc2cn3cc(-n4ccnc4)ccc3n2)cc1

# More lines, now with the values behind:
row,SMILES,melting point
1,CCCCO[PH](=O)Cc1cc(C(C)(C)C)c(O)c(C(C)(C)C)c1 (stereo not drawn),85 to 87 °C
2,CCOP(=O)(OCC)C1CCc2c([N+](=O)[O-])c(C(F)(F)F)cc3[nH]c(=O)c(=O)n1c23 (stereo not drawn),254 °C
3,CC(=O)C(CC(C)C)NC(=O)CCOc1ccc([N+](=O)[O-])cc1 (stereo not drawn),101 to 102 °C
4,CS(=O)(=O)c1nnc(C(F)(F)F)s1,84 °C
5,O=[N+]([O-])c1nccn1COCCO,115 °C
6,CC(=O)c1csc(S(N)(=O)=O)c1,170 to 172 °C
7,CC(C)(C)OC(=O)C[C@@H](CC1CCCC1)C(=O)N1CCCCC1,38 to 40 °C
8,Cc1cccc(C)c1NC(C)CN(C)C=O (stereo not drawn),69.5 to 72 °C
9,CS(=O)(=O)c1ccc(-c2cnn(CC(F)(F)F)c(=O)c2Nc2cc(F)cc(F)c2F)cc1,190 to 194 °C
10,OCC(CO)n1nnnc1S,138 °C
11,CNC(Cc1ccc2c(c1)Nc1nccnc1S2)=NC#N,233 to 234 °C
12,COc1cc2c(cc1-c1c(C)nn(C)c1C)-c1c(-c3cccs3)c3c(n1CC2)C(=O)N(C(C)C)CCN(C(=O)CCC(F)(F)F)C3,256 to 258 °C
13,O=C(Nc1ccc(Br)c(Br)c1[N+](=O)[O-])C(F)(F)F,107 to 109 °C
14,CN(C)c1nc2sc3c(NCCCN4CCCC4=O)ncnc3c2c2c1CC(C)(C)C2,184 to 186 °C
15,CSc1nc(Cl)c2ccsc2n1,105 to 107 °C
16,Cn1c(O)nc2cc3c(cc21)C(C)(C)C(=O)N3,364 to 367 °C

row,SMILES,melting point
1,CNc1nnc(C(C)(C)CCl)s1,91 to 93 °C
2,Nc1c(O)cc(Cl)cc1C(=O)C(F)(F)F,120 to 122 °C
3,CC(C)(C)OC(=O)NCCSCC1(C)NC(=O)NC1=O (stereo not drawn),134 to 136 °C
4,Cn1nc(-c2cccc(Br)c2)cc1C(=O)O,166 to 169 °C
5,CNS(=O)(=O)NC(C)C,50 to 52 °C
6,CNC(=O)c1ncn(-c2cc3c(=O)n(NS(C)(=O)=O)c(=O)[nH]c3cc2C(F)(F)F)n1,257 to 260 °C
7,C=C1CCC2C3CC=C4C=C(OC)CCC4(C)C3CCC12C (stereo not drawn),97 to 99 °C
8,CCOC(=O)c1c(C(F)(F)F)nc(C(F)(F)Cl)c(C(=O)OC)c1Cl,57.5 to 59.5 °C
9,CCCC(CC(=O)NC(=O)OC(C)(C)C)Nc1ccc(C)cc1 (stereo not drawn),63 to 64 °C
10,CC(O)CN1CCN(c2cccc3c2OCCO3)CC1 (stereo not drawn),92 °C
11,CCOc1ccc(Nc2nc3nc[nH]c3c(=O)[nH]2)cn1,> 350 °C
12,CCc1nc(C)cn1-c1cc2c(cc1Cl)[nH]c(=O)c1n[nH]c(=O)n12,273 to 275 °C
13,CC1(C)C(C(=O)O)C1C(C(Cl)(Br)C(F)(F)F)S(C)(=O)=O (stereo not drawn),138 °C
14,CCOc1cc(C#N)ccc1C(=O)O,170 to 172 °C
15,COC(=O)C(C)Nc1ccc(F)c(F)c1F (stereo not drawn),41 to 43 °C
16,Nc1cccc(C(=O)Nn2cnnn2)c1,281 °C
